Measurements reported in article PMC4564001 (Bioorganic & medicinal chemistry letters, 2015).

Key:
[1] = type: in vivo; conditions: DPS vehicle
[2] = type: in vitro ADME, human; conditions: 1 μM, 37°C, LC-MS/MS
neutrophil influx = assay: Ozone rat model of pulmonary inflammation; type: in vivo, Sprague-Dawley rats
[3] = type: in vitro ADME; conditions: data not shown
Aqueous solubility = type: physicochemical; conditions: qualitative statement

| SMILES | Rat PK AUC @ 1 mg/kg IV [1] [µM·h] | Human Plasma stability (% remaining) 1 hr [2] [% remaining] | Human Plasma stability (% remaining) 4 hr [2] [% remaining] | Human Plasma stability (% remaining) 24 hr [2] [% remaining] | Reduction of neutrophil influx (BALF) (neutrophil influx; single IV dose 1 mg/kg at t = 0, 1 ppm ozone 4 hours, BALF at 24 hours) | Stability in rat plasma (6 vs 7) [3] | Effectiveness at reducing neutrophil influx relative to 6 (neutrophil influx; single IV dose 1 mg/kg, ozone model, side-by-side with 6) | Aqueous solubility (Aqueous solubility) |
| --- | --- | --- | --- | --- | --- | --- | --- | --- |
| O=C(Nc1ccc(F)cc1)c1ccc(SCc2cc(OC(F)(F)F)ccc2B(O)O)nc1 [Compound 6, 6-(2-boronic acid-5-trifluoromethoxy-benzylsulfanyl)-N-(4-fluoro-phenyl)-nicotinamide] | 5.40 | 62 | 34 | 2 | modest reduction in neutrophil influx | no significant difference | – | – |
| O=C(Nc1ccc(F)cc1)c1cnc(N(Cc2ccccc2)Cc2ccc(B(O)O)cn2)nc1 [Compound 7, (2-{(Benzyl)[(5-boronic acid-2-pyridyl)methyl]amino}-5-pyrimidinyl)(4-fluorophenylamino)formaldehyde] | – | 90 | 71 | 62 | – | no significant difference | twice as effective | – |
| CN(Cc1ccc(B(O)O)cn1)c1ccc(C(=O)Nc2ccc(F)cc2)cn1 [Compound 22] | – | – | – | – | – | – | – | improved aqueous solubility |
| CN(Cc1ccc(B(O)O)cn1)c1ncc(C(=O)Nc2ccc(F)cc2)cn1 [Compound 23] | – | – | – | – | – | – | – | improved aqueous solubility |
